Measured values reported in US9763941B2, “Method of treating melanoma by administration of pharmaceutical formulations of (S)-methyl (1-((4-(3-(5-chloro-2-fluoro-3-(methylsulfonamido)phenyl)-1-isopropyl-1H-pyrazol-4-yl)pyrimidin-2-yl)amino)propan-2-yl)carbamate” (Array BioPharma, Inc., priority 2011, dated 2017).
“Also recorded” adds a separate entry of the source.

Assay: aqueous solubility characteristics / BCS classification
Type: physicochemical
From the text: Upon emptying from the stomach, COMPOUND A has the tendency to quickly precipitate out of solution due to an abrupt solubility drop in intestinal pH. […] The present invention relates to orally bioavailable pharmaceutical solid dispersion formulations of COMPOUND A.
Therapeutic compounds with such solubility characteristics typically present pharmaceutical formulation scientists with a challenge while attempting to prepare oral formulations capable of improving oral bioavailability of the therapeutic compound. Such challenges in preparing solid oral dosage forms of COMPOUND A are overcome, according to the present invention, by formulating the compound as a solid dispersion.

SMILES: COC(=O)N[C@@H](C)CNc1nccc(-c2cn(C(C)C)nc2-c2cc(Cl)cc(NS(C)(=O)=O)c2F)n1 [COMPOUND A, (S)-methyl (1-((4-(3-(5-chloro-2-fluoro-3-(methylsulfonamido)phenyl)-1-isopropyl-1H-pyrazol-4-yl)pyrimidin-2-yl)amino)propan-2-yl)carbamate]
- BCS class: BCS class II
- solubility at low pH (low pH): higher solubility; also recorded: highly soluble
- aqueous solubility at weakly acidic and neutral pH (weakly acidic and neutral pH): limited solubility; also recorded: poor aqueous solubility
